From US11530244B2, “Cyclic polypeptides for PCSK9 inhibition” (priority 2018, dated 2022) come the findings set out here.

Starred links: 1 amine or outer side, 2 acyl side, 3 side chain; linkers in the order of their positions; H or OH if unused. Positions of bridges follow the written chain, without caps; N, C: chain ends. Non-standard residues stand in square brackets, D forms with d. Residues, ends and D or L forms follow the SMILES beside them. Groups on a side chain read outwards from the residue. *: point of attachment. Pro(3R,4S-CMe2) = CC1(C)[C@@H]2[C@@H](C(=O)O)NC[C@@H]21; Ala(benzothiazol-2-yl) = N[C@@H](Cc1nc2ccccc2s1)C(=O)O; Naphthalene(2,6-diCH2) = c1cc2cc(C[*:2])ccc2cc1C[*:1]; NMeTrp(1-Me) = CN[C@@H](Cc1cn(C)c2ccccc12)C(=O)O; Trp(5-F) = N[C@@H](Cc1c[nH]c2ccc(F)cc12)C(=O)O; Trp(7-aza) = N[C@@H](Cc1c[nH]c2ncccc12)C(=O)O; Bip = N[C@@H](Cc1ccc(-c2ccccc2)cc1)C(=O)O; NMeW = CN[C@@H](Cc1c[nH]c2ccccc12)C(=O)O; αMeW = C[C@](N)(Cc1c[nH]c2ccccc12)C(=O)O; X4 = O=C(CCSCc1cccc(CSCCN[*:1])c1)[*:2]; γGlu = O=C(O)[C@H](CCC(=O)[*:2])N[*:1]; 1Nal = N[C@@H](Cc1cccc2ccccc12)C(=O)O; mXylylene = c1cc(C[*:1])cc(C[*:2])c1; NMeY = CN[C@@H](Cc1ccc(O)cc1)C(=O)O; X54 = c1cc2ccc(C[*:2])cc2cc1C[*:1]; Palmitoyl = CCCCCCCCCCCCCCCC(=O)*; X35 = COc1cc(C[*:1])cc(C[*:2])c1; hPhe = N[C@@H](CCc1ccccc1)C(=O)O; NMeD = CN[C@@H](CC(=O)O)C(=O)O; αMeK = C[C@](N)(CCCCN)C(=O)O; NMeV = CN[C@H](C(=O)O)C(C)C; αMeP = C[C@@]1(C(=O)O)CCCN1; Pip = O=C(O)[C@@H]1CCCCN1; Aze = O=C(O)[C@@H]1CCN1; Aib = CC(C)(N)C(=O)O; Mpa = O=C(O)CCS; Sar = CNCC(=O)O

The target in this assay is human PCSK9 / human LDLR EGFa domain interaction (Homo sapiens (Human), UniProt Q8NBP7). Briefly: TR-FRET assay of inhibition of the PCSK9-LDLR protein-protein interaction. It is filed as binding. The following applies: TR-FRET, 20 nM human PCSK9, 20 nM human LDLR EGFa domain, 2 hours room temperature; read-out: IC50. How it is done: A time-resolved fluorescence resonance energy (TR-FRET) assay was used to measure inhibition of the PCSK9-LDLR protein-protein interaction. Briefly, 20 nM avitag-biotinylated human PCSK9 was incubated with 20 nM his-tagged human LDLR EGFa domain in the presence of 5 nM LANCE Ulight Streptavidin (Perkin Elmer) and 5 nM europium-Anti-6×His (Perkin Elmer) for 2 hours covered at room temperature in buffer containing 50 mM HEPES, 150 mM NaCl, 5 mM CaCl2), 0.01% BSA and 0.01% Surfactant P20. Compounds were tested in dose-response and concentrations giving half-maximal inhibition calculated using a 4-parameter fit equation.
Sequence of human PCSK9 / human LDLR EGFa domain interaction (Q8NBP7 153-692): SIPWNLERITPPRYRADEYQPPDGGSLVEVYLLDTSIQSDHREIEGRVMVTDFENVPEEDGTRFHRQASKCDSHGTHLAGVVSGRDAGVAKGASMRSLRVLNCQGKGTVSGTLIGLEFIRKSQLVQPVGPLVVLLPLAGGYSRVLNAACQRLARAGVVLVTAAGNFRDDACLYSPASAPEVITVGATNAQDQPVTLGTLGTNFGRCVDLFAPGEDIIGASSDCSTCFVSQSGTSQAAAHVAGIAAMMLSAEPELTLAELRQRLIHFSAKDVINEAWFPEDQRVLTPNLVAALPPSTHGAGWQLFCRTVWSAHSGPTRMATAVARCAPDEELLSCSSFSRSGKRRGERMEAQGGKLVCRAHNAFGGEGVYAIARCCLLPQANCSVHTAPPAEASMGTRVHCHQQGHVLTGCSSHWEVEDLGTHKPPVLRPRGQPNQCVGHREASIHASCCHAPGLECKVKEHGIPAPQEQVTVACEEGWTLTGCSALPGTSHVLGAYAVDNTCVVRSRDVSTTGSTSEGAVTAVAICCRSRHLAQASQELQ
Sequence of human PCSK9 / human LDLR EGFa domain interaction (Q8NBP7 31-152 partner): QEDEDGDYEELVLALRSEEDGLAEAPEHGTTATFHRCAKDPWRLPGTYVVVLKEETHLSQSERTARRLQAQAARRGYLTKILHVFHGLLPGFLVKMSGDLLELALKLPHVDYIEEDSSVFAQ
For orientation: Time-resolved FRET reads energy transfer from a long-lived donor to a nearby acceptor.
`COc1cc2cc(c1)CSC[C@@H](C(N)=O)NC(=O)[C@@H]1CCCN1C(=O)[C@H](Cc1ccc(O)cc1)NC(=O)[C@H](Cc1c[nH]cn1)NC(=O)[C@H](CC(=O)O)NC(=O)[C@H](Cc1c[nH]c3ccc(F)cc13)NC(=O)[C@H](Cc1c[nH]c3ccc(F)cc13)NC(=O)CNC(=O)[C@H](CCCCN)NC(=O)CCSC2` [Compound 197] ([Mpa]KG[Trp(5-F)][Trp(5-F)]DHYPC-NH2; linker 1-10 via X35): the IC50 was in the range of 21 to 50 µM.
In the case of `CC1(C)[C@@H]2[C@H]3C(=O)N[C@H](C(N)=O)CSCc4cccc(c4)CSCCC(=O)N[C@@H](CCCCN)C(=O)NCC(=O)N[C@@H](Cc4c[nH]c5ccc(F)cc45)C(=O)N[C@@H](Cc4c[nH]c5ccc(F)cc45)C(=O)N[C@@H](CC(=O)O)C(=O)N[C@@H](Cc4c[nH]cn4)C(=O)N[C@@H](Cc4ccc(O)cc4)C(=O)N3C[C@@H]21` [Compound 201] ([Mpa]KG[Trp(5-F)][Trp(5-F)]DHY[Pro(3R,4S-CMe2)]C-NH2; linker 1-10 via mXylylene) it was 1 to 12.1 µM.
In the case of `NCCCC[C@@H]1NC(=O)CCSCc2ccc3cc(ccc3c2)CSC[C@@H](C(N)=O)NC(=O)[C@@H]2CCCN2C(=O)[C@H](Cc2ccc(O)cc2)NC(=O)[C@H](Cc2c[nH]cn2)NC(=O)[C@H](CC(=O)O)NC(=O)[C@H](Cc2c[nH]c3ccc(F)cc23)NC(=O)[C@H](Cc2c[nH]c3ccc(F)cc23)NC(=O)CNC1=O` [Compound 203] ([Mpa]KG[Trp(5-F)][Trp(5-F)]DHYPC-NH2; linker 1-10 via Naphthalene(2,6-diCH2)) it was 1 to 12.1 µM; in that of `NCCCC[C@@H]1NC(=O)CCSCc2ccc3ccc(cc3c2)CSC[C@@H](C(N)=O)NC(=O)[C@@H]2CCCN2C(=O)[C@H](Cc2ccc(O)cc2)NC(=O)[C@H](Cc2c[nH]cn2)NC(=O)[C@H](CC(=O)O)NC(=O)[C@H](Cc2c[nH]c3ccc(F)cc23)NC(=O)[C@H](Cc2c[nH]c3ccc(F)cc23)NC(=O)CNC1=O` [Compound 206] ([Mpa]KG[Trp(5-F)][Trp(5-F)]DHYPC-NH2; linker 1-10 via X54), 21 to 50 µM.
On to `NCCCC[C@@H]1NC(=O)CCSCc2cccc(c2)CSC[C@@H](C(N)=O)NC(=O)[C@@H]2CCN2C(=O)[C@H](Cc2ccc(O)cc2)NC(=O)[C@H](Cc2cnc[nH]2)NC(=O)[C@H](CC(=O)O)NC(=O)[C@H](Cc2c[nH]c3ccc(F)cc23)NC(=O)[C@H](Cc2c[nH]c3ccc(F)cc23)NC(=O)CNC1=O` [Compound 207] ([Mpa]KG[Trp(5-F)][Trp(5-F)]DHY[Aze]C-NH2; linker 1-10 via mXylylene), for which the IC50 lay within 21 to 50 µM.
As for `NCCCC[C@@H]1NC(=O)CCSCc2cccc(c2)CSC[C@@H](C(N)=O)NC(=O)[C@@H]2CCCCN2C(=O)[C@H](Cc2ccc(O)cc2)NC(=O)[C@H](Cc2cnc[nH]2)NC(=O)[C@H](CC(=O)O)NC(=O)[C@H](Cc2c[nH]c3ccc(F)cc23)NC(=O)[C@H](Cc2c[nH]c3ccc(F)cc23)NC(=O)CNC1=O` [Compound 208] ([Mpa]KG[Trp(5-F)][Trp(5-F)]DHY[Pip]C-NH2; linker 1-10 via mXylylene), the IC50 lay within 21 to 50 µM.
In the case of `NCCCC[C@@H]1NC(=O)CCSCc2cccc(c2)CSC[C@@H](C(N)=O)NC(=O)[C@@H]2CCCN2C(=O)[C@H](Cc2ccc(O)cc2)NC(=O)[C@H](Cc2c[nH]cn2)NC(=O)[C@H](CC(=O)O)NC(=O)[C@H](Cc2c[nH]c3ccc(F)cc23)NC(=O)[C@H](Cc2cccc3ccccc23)NC(=O)CNC1=O` [Compound 209] ([Mpa]KG[1Nal][Trp(5-F)]DHYPC-NH2; linker 1-10 via mXylylene) it was 1 to 12.1 µM; in that of `NCCCC[C@@H]1NC(=O)CCSCc2cccc(c2)CSC[C@@H](C(N)=O)NC(=O)[C@@H]2CCCN2C(=O)[C@H](Cc2ccc(O)cc2)NC(=O)[C@H](Cc2c[nH]cn2)NC(=O)[C@H](CC(=O)O)NC(=O)[C@H](Cc2c[nH]c3ccc(F)cc23)NC(=O)[C@H](CCc2ccccc2)NC(=O)CNC1=O` [Compound 211] ([Mpa]KG[hPhe][Trp(5-F)]DHYPC-NH2; linker 1-10 via mXylylene), 1 to 12.1 µM; in that of `C[C@@]1(Cc2c[nH]c3ccccc23)NC(=O)CNC(=O)[C@H](CCCCN)NC(=O)CCSCc2cccc(c2)CSC[C@@H](C(N)=O)NC(=O)[C@@H]2CCCN2C(=O)[C@H](Cc2ccc(O)cc2)NC(=O)[C@H](Cc2c[nH]cn2)NC(=O)[C@H](CC(=O)O)NC(=O)[C@H](Cc2c[nH]c3ccc(F)cc23)NC1=O` [Compound 212] ([Mpa]KG[αMeW][Trp(5-F)]DHYPC-NH2; linker 1-10 via mXylylene), 0.1 to 1 µM.
In the case of `C[C@@]1(CCCCN)NC(=O)CCSCc2cccc(c2)CSC[C@@H](C(N)=O)NC(=O)[C@@H]2CCCN2C(=O)[C@H](Cc2ccc(O)cc2)NC(=O)[C@H](Cc2c[nH]cn2)NC(=O)[C@H](CC(=O)O)NC(=O)[C@H](Cc2c[nH]c3ccc(F)cc23)NC(=O)[C@H](Cc2c[nH]c3ccc(F)cc23)NC(=O)CNC1=O` [Compound 214] ([Mpa][αMeK]G[Trp(5-F)][Trp(5-F)]DHYPC-NH2; linker 1-10 via mXylylene) it was 1 to 12.1 µM; in that of `CC1(C)NC(=O)[C@H](Cc2ccc(O)cc2)NC(=O)[C@H](Cc2cnc[nH]2)NC(=O)[C@H](CC(=O)O)NC(=O)[C@H](Cc2c[nH]c3ccc(F)cc23)NC(=O)[C@H](Cc2c[nH]c3ccc(F)cc23)NC(=O)CNC(=O)[C@H](CCCCN)NC(=O)CCSCc2cccc(c2)CSC[C@@H](C(N)=O)NC1=O` [Compound 218] ([Mpa]KG[Trp(5-F)][Trp(5-F)]DHY[Aib]C-NH2; linker 1-10 via mXylylene), 0.1 to 1 µM.
In the case of `CC(C)[C@H]1C(=O)N[C@H](C(N)=O)CSCc2cccc(c2)CSCCC(=O)N[C@@H](CCCCN)C(=O)NCC(=O)N[C@@H](Cc2c[nH]c3ccc(F)cc23)C(=O)N[C@@H](Cc2c[nH]c3ccc(F)cc23)C(=O)N[C@@H](CC(=O)O)C(=O)N[C@@H](Cc2cnc[nH]2)C(=O)N[C@@H](Cc2ccc(O)cc2)C(=O)N1C` [Compound 220] ([Mpa]KG[Trp(5-F)][Trp(5-F)]DHY[NMeV]C-NH2; linker 1-10 via mXylylene) it was 21 to 50 µM; in that of `CN1CC(=O)N[C@@H](Cc2c[nH]c3ccccc23)C(=O)N[C@@H](Cc2c[nH]c3ccccc23)C(=O)N(C)[C@@H](CC(=O)O)C(=O)N[C@@H](Cc2cnc[nH]2)C(=O)N(C)[C@@H](Cc2ccc(O)cc2)C(=O)N2CCC[C@H]2C(=O)N[C@H](C(N)=O)CSCc2cccc(c2)CSCCC(=O)N[C@@H](CCCCN)C1=O` [Compound 221] ([Mpa]K[Sar]WW[NMeD]H[NMeY]PC-NH2; linker 1-10 via mXylylene), 21 to 50 µM; in that of `CN1CC(=O)N[C@@H](Cc2c[nH]c3ccccc23)C(=O)N[C@@H](Cc2c[nH]c3ccccc23)C(=O)N(C)[C@@H](CC(=O)O)C(=O)N[C@@H](Cc2c[nH]cn2)C(=O)N[C@@H](Cc2ccc(O)cc2)C(=O)N2CCC[C@H]2C(=O)N[C@H](C(N)=O)CSCc2cccc(c2)CSCCC(=O)N[C@@H](CCCCN)C1=O` [Compound 222] ([Mpa]K[Sar]WW[NMeD]HYPC-NH2; linker 1-10 via mXylylene), 21 to 50 µM.
For the compound `NCCCC[C@@H]1NC(=O)CCSCc2cccc(c2)CSC[C@@H](C(N)=O)NC(=O)[C@@H]2CCCN2C(=O)[C@H](Cc2ccc(-c3ccccc3)cc2)NC(=O)[C@H](Cc2c[nH]cn2)NC(=O)[C@H](CC(=O)O)NC(=O)[C@H](Cc2c[nH]c3ccc(F)cc23)NC(=O)[C@H](Cc2c[nH]c3ccc(F)cc23)NC(=O)CNC1=O` [Compound 243] ([Mpa]KG[Trp(5-F)][Trp(5-F)]DH[Bip]PC-NH2; linker 1-10 via mXylylene), the IC50 fell in the range of 1 to 12.1 µM.
As for `C[C@H]1NC(=O)[C@H](CCCCN)NC(=O)CCSCc2cccc(c2)CSCCNC(=O)[C@]2(C)CCCN2C(=O)[C@H](Cc2c[nH]c3ncccc23)NC(=O)[C@H](Cc2cnc[nH]2)NC(=O)[C@H](CC(=O)O)NC(=O)[C@H](Cc2c[nH]c3ccc(F)cc23)NC(=O)[C@H](Cc2c[nH]c3ccc(F)cc23)NC1=O` [Compound 247] (cyclo(DH[Trp(7-aza)][αMeP][X4]K[dA][Trp(5-F)][Trp(5-F)])), the 50% inhibitory concentration (IC50) is 0.1 to 1 µM.
Regarding `C[C@@H]1NC(=O)CCSCc2cccc(c2)CSC[C@@H](C(N)=O)NC(=O)[C@@H]2CCCN2C(=O)[C@H](Cc2ccc(O)cc2)N(C)C(=O)[C@H](Cc2c[nH]cn2)NC(=O)[C@H](CC(=O)O)N(C)C(=O)[C@H](Cc2cn(C)c3ccccc23)N(C)C(=O)[C@H](Cc2c[nH]c3ccccc23)N(C)C(=O)CN(C)C1=O` [Compound 259] ([Mpa]A[Sar][NMeW][NMeTrp(1-Me)][NMeD]H[NMeY]PC-NH2; linker 1-10 via mXylylene), the 50% inhibitory concentration (IC50) fell in the range of 1 to 12.1 µM.
In the case of `NCCCC[C@@H]1NC(=O)CCSCc2cccc(c2)CSC[C@@H](C(N)=O)NC(=O)[C@@H]2CCCN2C(=O)[C@H](Cc2nc3ccccc3s2)NC(=O)[C@H](Cc2c[nH]cn2)NC(=O)[C@H](CC(=O)O)NC(=O)[C@H](Cc2c[nH]c3ccc(F)cc23)NC(=O)[C@H](Cc2c[nH]c3ccc(F)cc23)NC(=O)CNC1=O` [Compound 266] ([Mpa]KG[Trp(5-F)][Trp(5-F)]DH[Ala(benzothiazol-2-yl)]PC-NH2; linker 1-10 via mXylylene), the IC50 was in the range of 21 to 50 µM.
In the case of `CCCCCCCCCCCCCCCC(=O)N[C@@H](CCC(=O)N[C@@H](CCC(=O)NCCCC[C@@H]1NC(=O)CCSCc2cccc(c2)CSC[C@@H](C(N)=O)NC(=O)[C@]2(C)CCCN2C(=O)[C@H](Cc2ccc(O)cc2)NC(=O)[C@H](Cc2c[nH]cn2)NC(=O)[C@H](CC(=O)O)NC(=O)[C@H](Cc2c[nH]c3ccc(F)cc23)NC(=O)[C@H](Cc2c[nH]c3ccc(F)cc23)NC(=O)CNC1=O)C(=O)O)C(=O)O` [Compound 283] ([Mpa]K([γGlu-γGlu-Palmitoyl])G[Trp(5-F)][Trp(5-F)]DHY[αMeP]C-NH2; linker 1-10 via mXylylene) it was 21 to 50 µM.

For orientation: IC50 means the point on the concentration scale where inhibition reaches its midpoint.
